Assay results from patent publication US7087375B1, “Method for determining the mechanism of HIV RT inhibitors” (priority 2000, dated 2006).

Columns and labels:
[1] = test system: HXB2 site-directed mutant V75T; format: cell-based; details: virus V75T
[2] = test system: HXB2 site-directed mutant M41L, T215Y; format: cell-based; details: virus M41L
[3] = test system: HXB2 site-directed mutant M41L, D67N, K70R, M184V, T215Y; format: cell-based; details: virus M41L
[4] = test system: HXB2 site-directed mutant T69S-SS; format: cell-based; details: virus T69S-SS
[5] = test system: HXB2 site-directed mutant T69S-SG; format: cell-based; details: virus T69S-SG
wild type HXB2 virus = assay: HIV drug susceptibility assay (recombinant virus, MT-4 cells); details: Human immunodeficiency virus 1, HXB2, MT4, read-out: mean IC50 for the wild type control virus
Experimental: Phenotypic susceptibility of these viable recombinant viruses to nucleoside analogs was then determined. […] Fold resistance values were calculated by dividing the mean 50% inhibitory concentration (IC50) for a recombinant virus from a mutant clone by the mean IC50 for recombinant wild type virus (HXB2).

[6] = test system: HXB2 site-directed mutant T69S-AG; format: cell-based; details: virus T69S-AG
[7] = test system: HXB2 site-directed mutant M41L, T69S-SS, T215Y; format: cell-based; details: virus M41L
[8] = test system: HXB2 site-directed mutant M41L, M184V, T215Y; format: cell-based; details: virus M41L
[9] = test system: HXB2 site-directed mutant D67N, K70R; format: cell-based; details: virus D67N
[10] = test system: HXB2 site-directed mutant Q151M; format: cell-based; details: virus Q151M
[11] = test system: HXB2 site-directed mutant M41L, T69S-SG, T215Y; format: cell-based; details: virus M41L
[12] = test system: HXB2 site-directed mutant M41L, T69S-AG, T215Y; format: cell-based; details: virus M41L

| Structure (SMILES) | Fold resistance in IC50 relative to HXB2 [1] | Fold resistance in IC50 relative to HXB2 [2] | Fold resistance in IC50 relative to HXB2 [3] | Fold resistance in IC50 relative to HXB2 [4] | Fold resistance in IC50 relative to HXB2 [5] | IC50 (wild type HXB2 virus) | Fold resistance in IC50 relative to HXB2 [6] | Fold resistance in IC50 relative to HXB2 [7] | Fold resistance in IC50 relative to HXB2 [8] | Fold resistance in IC50 relative to HXB2 [9] | Fold resistance in IC50 relative to HXB2 [10] | Fold resistance in IC50 relative to HXB2 [11] | Fold resistance in IC50 relative to HXB2 [12] |
| --- | --- | --- | --- | --- | --- | --- | --- | --- | --- | --- | --- | --- | --- |
| Nc1nc(NC2CC2)c2ncn([C@H]3C=C[C@@H](CO)C3)c2n1 [Abacavir, abacavir] | 1.8 fold | 4.4 fold | 4.1 fold | 3.0 fold | 4.0 fold | 2100 nM | 7.0 fold | 4.6 fold | 7.1 fold | 1.8 fold | 2.8 fold | 9.6 fold | 12.0 fold |
| Nc1ccn([C@H]2CC[C@@H](CO)O2)c(=O)n1 [ddC, zalcitabine] | 3.0 fold | 2.5 fold | 5.1 fold | 3.2 fold | 1.7 fold | 710 nM | 2.8 fold | 1.5 fold | 5.0 fold | 1.3 fold | 5.4 fold | 2.8 fold | 2.5 fold |
| O=c1[nH]cnc2c1ncn2[C@H]1CC[C@@H](CO)O1 [ddI, didanosine] | 2.5 fold | 0.9 fold | 2.4 fold | 4.3 fold | 2.1 fold | 1600 nM | 3.8 fold | 2.5 fold | 8.0 fold | 0.3 fold | 3.5 fold | 5.0 fold | 6.5 fold |
